These results are taken from paper PMC7440915, “Discovery of surrogate agonists for visceral fat Treg cells that modulate metabolic indices in vivo” (eLife, 2020).

The test system of experiment [1] is vTreg53 TCR (transduced Jurkat T cells). The experiment in a line: CD69/CD25 up-regulation on vTreg53 TCR transduced Jurkat T cells with peptide-pulsed K562-A^b cells. It is filed as cell-based, Homo sapiens (cells); murine TCR. The conditions noted are these: for CD25 Emax, fold increase over Fat15: CD25, peptide titration, Figure 3E; for CD69 Emax, fold increase over Fat15: CD69, peptide titration, Figure 3D; for pEC50: peptide titration, CD69 (Figure 3D), overnight, mean ± SD from n = 2 biological replicates, 1 representative of 3 experiments. On the procedure:
(§1) Figure 3. Identification of robust vTreg53 TCR agonists. Single-point mutants based on the Fat7 (A) or Fat15 (B) peptides were used to stimulate Fat-TCR transduced Jurkat T cells. Data shown are mean fluorescence intensity for CD69 up-regulation following overnight stimulation with the indicated peptides at 100 µM. (C) Potent SPs based on Fat15. Single-residue mutations from the Fat15 are shown in red. Anchor positions are shown in grey and potential TCR-facing positions are shown in green. A peptide titration of single- and double-point mutants from the Fat15 SP show up to ~4- (D; CD69) or ~8 fold (E; CD25) increase in Emax. (F) Surface plasmon resonance for Fat7, Fat15, Fat1562 and Fat2564 was used to determine the pMHC/Fat TCR affinity. All biotinylated pMHC were purified by SEC and immobilized in a streptavidin-coated SPR sensor chip from 200 up to 600 RU. Data are mean ± SD from n = 2 (A, D, E) or 3 (B) biological replicates from 1 representative of 3 independent experiments. Data shown in (F) is representative of 2 independent experiments. Figure 3—figure supplement 1. In vitro peptide stimulation of the vTreg53 TCR cells. (A) Expression of wild-type Ab MHC in stably transduced K562 cells. (B) Expression of vTreg53 TCR in stably transduced Jurkat T cells (TCRαβ-/-). (C) Fraction of CD25+/CD69+ cells following overnight stimulation with Fat mimotopes at the indicated concentrations. (D) Peptide-A^b - streptavidin PE (pAb -SAPE) titration of vTreg53 transduced Jurkat T cells. Cells were stained with 250 nM of pA^b-SAPE tetramer for 1 hr.
Cell lines were kept in a humidified incubator at 37°C with 5% CO2 unless otherwise denoted. Jurkat T cells (derived from acute T cell leukemia ATCC TIB-152) and K562 cells (ATCC CCL-243) were cultured in RPMI supplemented with 2 mM glutamax (Invitrogen), 10% FBS (Sigma),10 mM HEPES pH 8.0 (ThermoFisher), 1 mM Sodium Pyruvate (Gibco) and 50 U/ml penicillin and streptomycin (ThermoFisher). Validation of T cell lines was performed by staining with known markers pre- and post- transfection or transduction. HEK293T (Lenti-X; Takara Bio USA, #632180) cells (female derived kidney cell line) were grown in DMEM complete media (ThermoFisher) supplemented with 10% FBS, 2 mM L-glutamine, and 50 U/ml of penicillin and streptomycin. Cells were tested for mycoplasma contamination using the MycoAlert Mycoplasma Detection kit (Lonza) and found to be mycoplasma-negative. For peptide assays, Jurkat T cells were rested overnight or for 2–3 hr in fresh RPMI complete. Cells were co-cultured for 16 to 48 hr with surrogate APCs: K562 transduced with A^b. After overnight incubation, cells were washed in MACS buffer and stained with anti-TCR, A^b, CD69 and CD25. EBY100 yeast cells were cultured in sterile filtered standard YPD (Bacto Peptone, glucose and yeast extract). Transformed yeast were grown in SDCAA (yeast nitrogen base, casamino acids -ADE, -URA, -TRP, D-glucose and buffered to pH 4.5 using sodium citrate and citric acid monohydrate) and induced in SGCAA where galactose replaces D-glucose. EBY100 cells are grown at 30°C when cultured in SDCAA, or at 20°C when cultured in SGCAA at atmospheric CO2 in an orbital shaker set to an agitation speed of 250 rpm.

Experiment [2] addresses vTreg53 (Fat) TCR. The experiment in a line: Surface plasmon resonance, pMHC/Fat TCR affinity. Format: binding, murine. The settings on record: 25°C; for pKd: Biacore T100, biotinylated pMHC immobilized on SA chip 200 to 600 RU, HBS-P+, equilibrium, representative of 2 experiments. On the procedure:
as §1
High Five cells (Tni; Expression Systems) were grown in Insect X-press media (Lonza) or ESF 921 media (Expression Systems) with a final concentration of 10 mg/L of gentamicin sulfate (ThermoFisher) at 27°C at atmospheric CO2. SF9 cells are grown in SF900-III or -II serum-free media (ThermoFisher) with 10% FBS and final concentration 10 mg/L of gentamicin sulfate and 2 mM glutamax at 27°C at atmospheric CO2. P1 or P2 virus was used to infect volumes of 1–3 L of Hi5 cells at ∼2 × 10^6 cells/ml. Supernatant was harvested 2–3 days post-infection and spun down at 8000 rpm for 15 min. The supernatant containing expressed protein was treated to 100 mM Tris pH 8.0, 1 mM NiCl2, and 5 mM CaCl2 to precipitate contaminants. The supernatant and precipitate mixture was spun down at 8000 rpm for 20 min at 4°C to remove precipitate. The supernatant was incubated with Ni-NTA resin (QIAGEN) for >3 hr at room temperature. Ni-NTA beads were collected and washed in a Buchner funnel with 20 mM imidazole in 1 x HBS pH 7.2 and eluted with 200 mM imidazole in 1x HBS pH 7.2. Protein was concentrated in a 10 kDa filter (Millipore, UFC903024) to ~1 mL. When appropriate, protein was biotinylated with BirA ligase, 100 μM biotin, 40 mM Bicine pH 8.3, 10 mM ATP, and 10 mM Magnesium Acetate at 4°C overnight. All proteins were further purified by size-exclusion chromatography using Superdex Increase S200 or S75, as appropriate (GE Healthcare). All proteins for in vivo studies were cleared of endotoxin. Final endotoxin levels were determined using a chromogenic endotoxin quantitation kit (Thermo Fisher) and never greater than 1 Endotoxin Unit/mg of purified protein.
A GE Biacore T100 was used to measure the KD by equilibrium methods. Approximately 200 resonance units (RU) of human CD45, PD-1 or mouse PD-1 was captured on a SA-chip (GE Healthcare), including a reference channel of an unrelated protein. SPR runs were performed in HBS-P+ (GE Healthcare). All measurements were made with 2-fold serial dilutions using 45–60 s association (at 30 μl/min) followed by >240 s dissociation (30 μl/min) at 25°C. Regeneration was performed using HBS-P+, 2 M MgCl2 or 0.1 M Glycine, pH 3.1 for 15–20 s at 50 μl/min. Measurement of titrations at equilibrium were used to determine the KD using Biacore Analysis Software (GE Healthcare). All measurements were repeated twice.
On the technique in general: Surface plasmon resonance follows binding to a sensor surface in real time, without labels.

pEC50, pKd: −log10 of the molar value. Where no end group is shown, it is not given here.

For LMFKGPHAVQAVG [Fat7], the “CD69 up-regulation” value in experiment [1] (overnight stimulation, screen at 100 µM) is reported as “able to up-regulate CD69 expression”. Besides, the pKd (in general, −log10 of the Kd, conventionally taken in molar units) in experiment [2] was 4.46. In experiment [2] (SPR), the “koff” value was “fast kon and koff”; the “kon” value is listed as “fast kon”.
Turning to TMYKNLRPWAATG [Fat2564], in experiment [1], the “CD25 Emax, fold increase over Fat15” value turned out to be 8.7 fold; the “CD69 Emax, fold increase over Fat15” value is recorded as about 5 fold; the negative-log EC50 (pEC50) – broadly, −log10 of the EC50, conventionally taken in molar units – was 5.05. Further, the pKd in experiment [2] is 6.46. In experiment [2] (SPR), the “affinity” value is reported as “highest affinity” and the “koff” value is given as “slowest koff”.
As for TMYKNPRPMAATG [Fat1562], in experiment [1], the “CD25 Emax, fold increase over Fat15” value amounted to 4.1 fold; the “CD69 Emax, fold increase over Fat15” value is given as ~ 3 fold; the pEC50 is 4.84. In addition, in experiment [2] (SPR), the “affinity” value is listed as “highest affinity” and the “koff” value is recorded as “slowest koff”.
